Results from US6613792B1, “Treatment of premenstrual syndrome and menopause” (Designed Nutritional Products, Inc., priority 1999, dated 2003).

What was measured:
[1] = test system: premenstrual syndrome (PMS) symptoms; assay: Case reports of subjects with premenstrual syndrome taking I3C capsules; assay type: in vivo, human
Protocol: Capsules containing 100 to 300 mg of 1H-indole-3-methanol (I3C™ from Designed Nutritional Products, Orem, Utah, U.S.) were made by placing that amount of 1H-indole-3-methanol into gelatin capsules. Capsules containing 200 mg of 1H-indole-3-methanol (I3C™ from Designed Nutritional Products, Orem, Utah, U.S.) were made by placing that amount of 1H-indole-3-methanol into gelatin capsules. Subject A, commonly suffered from fatigue, moodiness, and bluish circles beneath their eyes prior to menstruation. During menses, which typically lasted for 7-10 days, they experienced menstrual cramping which required ibuprofen for relief. Subject A had taken I3C™ for three menstrual cycles. […] Subject B had taken I3C™ for one menstrual cycle. Their PMS symptoms prior to taking I3C™ included extreme fatigue, frequent migraine headaches, bloating, moodiness, and severe menstrual cramps. They started taking I3C™ with no knowledge of its effects or benefits. […] Subject C had been diagnosed and treated for endometriosis. Their PMS symptoms included fatigue, heavy blood flow (menorrhagia), severe menstrual cramps, and menses of approximately 10 days. Subject C had taken I3C™ for six cycles. […] Subject D, had taken I3C™ for ½ months and noticed a rapid change in their PMS symptoms.

menopausal symptoms = assay: Case report of a subject with menopausal symptoms taking I3C capsules; assay type: in vivo, human; conditions: Subject E
Protocol: Capsules containing 100 to 300 mg of 1H-indole-3-methanol (I3C™ from Designed Nutritional Products, Orem, Utah, U.S.) were made by placing that amount of 1H-indole-3-methanol into gelatin capsules. […] After the hysterectomy, Subject E had menopausal symptoms including hot flashes, occasional sweating profusion, grogginess after a full night's sleep, and almost continuous irritable bowel syndrome. Subject E started taking four 100 mg capsules of I3C™ per day, two capsules in the morning and two capsules in the late afternoon. […] Their hot flashes and excessive sweating disappeared after taking a few doses of I3C™.

[2] = Reactivity/stability of 1H-indole-3-methanol in solvent, sunlight and heat (HPLC); assay type: physicochemical
Protocol: Relatively pure 1H-indole-3-methanol (I3C™ from Designed Nutritional Products, Orem, Utah, U.S.) in a water solution was prepared for HPLC analysis. One sample was diluted with water and the other was diluted with methanol. […] In the course of manufacturing and formulating dietary supplements containing 1H-indole-3-methanol, it was observed that the carbinol in the three position is extremely reactive. […] In the course of heating at 60° C., 99% of the present 1H-indole-3-methanol will disappear from HPLC chromatograms, being replaced by as many as 40 or 50 different derived compounds, virtually all of them identified as containing an indole component. More detailed studies have shown that one of the first compounds to appear in a sample of 1H-indole-3-methanol undergoing heat treatment is ([…], a “dimer” of 1H-indole-3-methanol.

[3] = Subject C, endometriosis, six cycles

1H-indole-3-methanol disappearing from HPLC chromatograms on heating ([2]; heating at 60° C.): 99%
stability in the presence of sunlight ([2]; sunlight): change color in just a few hours
HPLC peaks after dilution with methanol (reaction to methyl ether) ([2]; water solution diluted with methanol, by the time of injection): two peaks of about the same magnitude
HPLC peaks after dilution with water ([2]; water solution diluted with water): only one peak
Compound: OCc1c[nH]c2ccccc12 [I3C™, 1H-indole-3-methanol]
PMS symptoms (fatigue, moodiness, bluish circles beneath eyes, menstrual cramping) ([1]; Subject A, I3C taken for three menstrual cycles): the above symptoms were alleviated
duration of menses ([1]; Subject A, three menstrual cycles, typically 7-10 days before): approximately 4 days
PMS symptoms (extreme fatigue, migraine headaches, bloating, moodiness, severe menstrual cramps) ([1]; Subject B, within one menstrual cycle): experienced only mild fatigue and their remaining symptoms were alleviated
fatigue ([1]; Subject C, endometriosis, I3C taken for six cycles): ceased
menstrual blood flow [1, 3]: decreased substantially
severity of menstrual cramps [1, 3]: decreased
PMS symptoms after starting I3C again ([1]; Subject C, restart after withdrawal): their symptoms were alleviated
duration of menses ([1]; Subject C, six cycles, approximately 10 days before): approximately 5 days
PMS symptoms after stopping I3C for one menstrual cycle ([1]; Subject C, withdrawal for one cycle): previous PMS symptoms returned
PMS symptoms (bloating, headaches) ([1]; Subject D, I3C taken for ½ months): less bloating and reduced headaches
bowel, sleep and energy symptoms (menopausal symptoms; four 100 mg capsules per day for one month): bowel regularity, less sleep disturbances, and a steady energy level throughout the day
hot flashes and excessive sweating (menopausal symptoms; partial hysterectomy, four 100 mg capsules per day, after a few doses): disappeared
